This note sets out measurements from patent US4935422A, “Acyloxypropanolamines” (E. I. Du Pont de Nemours and Company, priority 1988, dated 1990).

This experiment has as its target β-adrenergic receptors (guinea pig right atria and guinea pig tracheal strips). Kind of experiment: Beta-blocking activity in vitro: guinea pig right atria and tracheal strips, shift of isoproterenol concentration-response curves (pA2). The following applies: β-blockade of isoproterenol response, 60-minute incubation, 37 °C; pA2 (-log KB) by method of Furchgott; tissue (atria or trachea) not stated in Table 1. The method, then: Several of the compounds of the present invention were tested for β-blocking activity in vitro using guinea pig right atria and guinea pig tracheal strips mounted in a tissue bath containing oxygenated (95% O2 -5% CO2) Krebs physiological salt solution at 37° C. Each tissue was suspended between a fixed glass rod and a Statham Universal Transducer connected to a Beckman recorder. Atria were allowed to beat spontaneously under a loading tension of approximately 0.5 gm. Intrinsic depressant or stimulant activity was determined for each compound by progressively increasing concentrations in the tissue baths at 60-minute intervals. Tissues were not washed between increments. The maximum concentration showing little or no cardiodepressant activity was chosen for blockade experiments. Changes in rate in response to isoproterenol, a standard β-receptor agonist, were measured in the absence and presence of test compounds. Spiral strips of guinea pig trachea were suspended under 5 gm resting tension and incubated with phentolamine, tropolone and cocaine. Active tension was generated by addition of carbachol (3.0×10^-7 M) and decreases in tension in response to isoproterenol were quantitated. Cumulative concentration-response curves were produced with isoproterenol both before and after 60-minute incubation of test compounds with atria and trachea. Compounds with β-blocking activity shifted concentration-response curves to the right. The blocking potency of test compounds was estimated by computing pA2 values (-log […]) by the method of Furchgott, the Pharmacological Differentiation of Adrenergic Receptors, Ann. N.Y. Acad. Sci., 139:553-570 (1967). […] The degree of cardioselectivity was estimated from the ratio, kβ trachea/Kβ atria (10^(pA.sbsp.2^atria-pA.sbsp.2^trachea)). A ratio greater than one indicates cardioselectivity. Test drugs were dissolved in distilled water and added to the bath (30 mL) in a volume of 10 or 100 μL. All of the test compounds are active β-blockers. [drawing 10]
As to `CC(C)(C)NCC(O)COC(=O)C1CC1` (stereo not shown) [Compound 2], the pA2 came out at 6.5. The value for `CC(C)(C)NCC(O)COC(=O)C(C)(C)C` (stereo not shown) [Compound 3] was 5.3; that for `CC(C)(C)NCC(O)COC(=O)C1CCC1` (stereo not shown) [Compound 4] was 5.0; that for `CC(C)C(=O)NCC(C)(C)NCC(O)COC(=O)C(C)(C)C` (stereo not shown) [Compound 5] was 6.5. The value for `CC(C)C(=O)NCC(C)(C)NCC(O)COC(=O)C1CCC1` (stereo not shown) [Compound 7] was 6.5; that for `CC(C)C(=O)NCC(C)(C)NCC(O)COC(=O)C1=CCCC1` (stereo not shown) [Compound 8] was 7.6.

Consider `CC(C)C(=O)NCC(C)(C)NCC(O)COC(=O)C1CC=CCC1` (stereo not shown) [Compound 9], for which the pA2 stood at 6.9. For `CC(C)(CNC(=O)N1CCCCC1)NCC(O)COC(=O)C1CC1` (stereo not shown) [Compound 10], the pA2 is given as 8.1. In the case of `CC(C)(CNC(=O)N1CCOCC1)NCC(O)COC(=O)C1CC1` (stereo not shown) [Compound 11], the pA2 is listed as 8.0.

As for `CC(C)(CNC(=O)C1CCOC1)NCC(O)COC(=O)/C=C/c1ccccc1` (stereo not shown) [Compound 12], the pA2 was 7.3.

For orientation: pA2 means a measure of antagonist potency on a negative log scale.
